Patent publication US20180049996A1, “THERAPEUTIC AGENT FOR CHRONIC RESPIRATORY DISEASE AND COMPOSITION FOR INHIBITING CARDIAC FIBROSIS” (NIPPON HYPOX LABORATORIES INCORPORATED, priority 2015, published 2018)

Legend:
[1] = test system: Reactive oxygen species (ROS); assay: Reactive oxygen species (ROS) in BAL cell fluid, COPD model; assay type: in vivo, C57BL/6N mice; settings: HTHQ 10 and 20 mg/kg/day oral; tobacco smoke 10 days + LPS; compared to COPD group
Protocol: 6 week old male SPF C57BL/6N mice, 20 to 25 g of body weight, were purchased from CORETEC INC. (South Korea).
The tests were conducted as follows. The mice in the COPD (chronic obstructive pulmonary disease) model group of the test groups were exposed to tobacco smoke for 1 hour per day (8 cigarettes/day) for 10 days and LPS (5 μg/50 μL/mouse) was intranasally administered to the mice on day 8 after the start of the tests. […]
The mice in the test groups were euthanized 72 hours after the LPS administration and the mice in the normal control group were euthanized on day 11 after the start of the tests by intraperitoneal injection of pentobarbital (Hanrimu pharmaceutical, South Korea) at 50 mg/kg and then the bronchi were excised. […] After preparing slide samples from 100 μL of BAL cell fluid using Cytospin (4° C., 1000 rpm×5 min), the cell numbers of inflammatory cells (neutrophil, macrophages) present in the BAL fluid were counted using a Diff-Quik stain kit.
Reactive oxygen species (ROS) amounts in BAL cell fluid were measured. […] Reactive oxygen species (ROS) amounts within cells were measured at an excitation wavelength of 485 nm and a fluorescence wavelength of 530 nm using a fluorescence plate analyzer (a product from PerkinElmer, Inc.).

[2] = test system: Pulmonary Fibrosis Induced by Bleomycin; assay: Gross pathology of lungs, pulmonary fibrosis induced by bleomycin; assay type: in vivo, male SD rats; settings: test groups 2 and 3: bleomycin 7.5 mg/kg + HTHQ 50 or 200 mg/kg/day oral; day 20
Protocol: Bleomycin is used to produce disease-model animals of interstitial pneumonia. The bleomycin and 2,3,5-trimethylhydroquinone-1-hexyl ether (HTHQ) as the hydroquinone derivative represented by the general formula (1) described above of the present invention were simultaneously administered to male SD rats of 10 week old after birth to examine the effect of the action. The test groups consisted of the control group to which sterile saline was administered; test group 1 to which bleomycin (7.5 mg/kg body weight) alone was administered; test group 2 to which bleomycin (7.5 mg/kg body weight) and HTHQ (50 mg/kg body weight/day) were administered in combination; and test group 3 to which bleomycin (7.5 mg/kg body weight) and HTHQ (200 mg/kg body weight/day) were administered in combination.
In test groups 1 to 3, bleomycin was orally administered in a single dose. In test groups 2 and 3, 2,3,5-trimethylhydroquinone-1-hexyl ether (HTHQ) was daily orally administered for 10 or 20 days starting from 24 h after the administration of bleomycin. In test group 1, olive oil, which was used as a solvent of HTHQ, was daily orally administered at 10 mL/kg/day starting from 24 h after the administration of bleomycin. The number of animals in each group was 16. […]

## CCCCCCOc1cc(C)c(O)c(C)c1C [HTHQ, 2,3,5-trimethylhydroquinone-1-hexyl ether]
[1]
  amount of reactive oxygen species (ROS) in BAL cell fluid: effectively reduced
[2]
  gross pathology of lungs (lesions): alleviated
